A value given as a limit tells only on which side of the number the result lay.

The data set can be described thus: Mammalian cell cytotoxicity assay (CellTiter-Glo). The data set is classed as cell-based, mouse. The conditions noted are these: mouse; NIH/3T3, 96 hours; read-out: CC50, 3T3 cell line. Here is the method:
NIH/3T3 fibroblast cells were maintained in RPMI-1640 medium supplemented with 10% heat-inactivated FBS and 100 IU penicillin / 100 μg streptomycin per mL at 37°C / 5% CO2. For compound screening, cells were diluted to 4 × 10^4 cells / mL in assay medium (RPMI-1640, 5% FBS, and 100 IU penicillin / 100 μg streptomycin per mL) and seeded at 50 μL / well into 384-well plates. Following overnight incubation, compounds were added to each well (0.2% DMSO final concentration) and plates were further incubated for 96 hours. Cell viability was assessed using the CellTiter-Glo Luminescent Cell Viability Assay (Promega). Measured luminescence values were normalized to the value obtained for 0.2% DMSO, and plotted against the corresponding compound concentration for half maximal cytotoxic concentration (CC50) value determination.
For orientation: Cellular ATP, detected with luciferase, serves as a proxy for viable cell number.

One may read the CC50 as the concentration at which the toxic effect on the cells reaches its halfway point. `CCc1c(C)c(C#N)c2nc3ccccc3n2c1O` [GNF7686]: the CC50 is over 20 µM.

The values are drawn from article PMC4506092, “Utilizing Chemical Genomics to Identify Cytochrome b as a Novel Drug Target for Chagas Disease” (PLoS Pathogens, 2015).
